Measured values taken from ChEMBL document CHEMBL1201862, “PubChem BioAssay data set” (2004).
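Step 1: Grow cells in 96-well plates. Step 2: Expose to compound for 48 hours at 5 concentrations. Step 3: Interpolate endpoints linearly; if unreached, use highest concentration. GI50 is the concentration that inhibits growth by half.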 The source made the active and inactive calls. No stated cut-off is given here; in the data, active = GI50 up to about 1.1 µM and inactive = higher.

Assays:
Test in all cases: DTP human tumour cell line panel, 48 h
A498 = test system: A498
A549 = test system: A549
CCRF-CEM = test system: CCRF-CEM
COLO 205 = test system: COLO 205
EKVX = test system: EKVX
HCC 2998 = test system: HCC 2998
HOP-92 = test system: HOP-92
HT-29 = test system: HT-29
Malme-3M = test system: Malme-3M
NCI-H226 = test system: NCI-H226
NCI-H23 = test system: NCI-H23
NCI-H522 = test system: NCI-H522
SK-OV-3 = test system: SK-OV-3
SN12C = test system: SN12C
U-251 = test system: U-251
UACC-257 = test system: UACC-257
UACC-62 = test system: UACC-62
RPMI-8226 = test system: RPMI-8226

Structure (SMILES) | GI50 (A498) | GI50 (A549) | GI50 (CCRF-CEM) | GI50 (COLO 205) | GI50 (EKVX) | GI50 (HCC 2998) | GI50 (HOP-92) | GI50 (HT-29) | GI50 (Malme-3M) | GI50 (NCI-H226) | GI50 (NCI-H23) | GI50 (NCI-H522) | GI50 (SK-OV-3) | GI50 (SN12C) | GI50 (U-251) | GI50 (UACC-257) | GI50 (UACC-62) | GI50 (RPMI-8226)
O=[PH]1c2ccccc2Nc2ccccc21 | 21.7 µM (inactive) | > 100 µM (inactive) | > 100 µM (inactive) | > 100 µM (inactive) | 22.4 µM (inactive) | > 100 µM (inactive) | > 100 µM (inactive) | 51.6 µM (inactive) | 80.2 µM (inactive) | > 100 µM (inactive) | > 100 µM (inactive) | 74.3 µM (inactive) | > 100 µM (inactive) | > 100 µM (inactive) | > 100 µM (inactive) | > 100 µM (inactive) | > 100 µM (inactive) | 
CC(=O)NC1C(OCc2ccccc2)OC(CO)C(O)C1OCC(=O)N1CCCC1C(=O)N[C@@H](CCC(=O)NCCCCNc1c2ccccc2nc2cccc([N+](=O)[O-])c12)C(N)=O (stereo partly specified) | 35.7 µM (inactive) | 16 µM (inactive) |  | 18.6 µM (inactive) | 43.3 µM (inactive) | 16.1 µM (inactive) | 9.33 µM (inactive) | 16.7 µM (inactive) | 33.3 µM (inactive) | 74 µM (inactive) | 15.7 µM (inactive) |  | 99.1 µM (inactive) | 23.7 µM (inactive) | 18.9 µM (inactive) |  |  | 2.64 µM (inactive)
COC(=O)C1CCC(=S)N1C(=O)c1ccccc1 (stereo unspecified) | > 100 µM (inactive) | > 100 µM (inactive) | > 100 µM (inactive) | > 100 µM (inactive) | 87.3 µM (inactive) | 77.6 µM (inactive) | > 100 µM (inactive) | > 100 µM (inactive) | > 100 µM (inactive) |  | > 100 µM (inactive) | > 100 µM (inactive) | > 100 µM (inactive) |  | > 100 µM (inactive) | > 100 µM (inactive) | > 100 µM (inactive) | > 100 µM (inactive)
CSc1ccc(/C=C2\N=C(c3ccccc3)N(/N=C/c3cc4cc(C)ccc4nc3Cl)C2=O)cc1 | 17.5 µM (inactive) | 19.5 µM (inactive) | 12 µM (inactive) | 16.7 µM (inactive) | 32.4 µM (inactive) | 16 µM (inactive) | 17.9 µM (inactive) | 23.1 µM (inactive) |  |  |  |  | 24 µM (inactive) | 17.7 µM (inactive) | 20 µM (inactive) | 19.4 µM (inactive) | 15.6 µM (inactive) | 27.6 µM (inactive)
O=C(O)c1ccc(OCc2ccccc2)c(Cl)c1 | > 100 µM (inactive) | > 100 µM (inactive) | > 100 µM (inactive) | > 100 µM (inactive) | > 100 µM (inactive) |  | > 100 µM (inactive) | > 100 µM (inactive) | > 100 µM (inactive) | > 100 µM (inactive) | > 100 µM (inactive) | > 100 µM (inactive) | > 100 µM (inactive) | > 100 µM (inactive) | > 100 µM (inactive) | > 100 µM (inactive) | > 100 µM (inactive) | > 100 µM (inactive)
CCN(CC)C1=Nc2ccccc2-n2ccnc2C1 | > 100 µM (inactive) | > 100 µM (inactive) | > 100 µM (inactive) | > 100 µM (inactive) | > 100 µM (inactive) | > 100 µM (inactive) | > 100 µM (inactive) | > 100 µM (inactive) |  | > 100 µM (inactive) | > 100 µM (inactive) | > 100 µM (inactive) |  | > 100 µM (inactive) | > 100 µM (inactive) | > 100 µM (inactive) | > 100 µM (inactive) | 
COC1=CC(=O)c2c(c(-c3csc(C)n3)cn2C)C1=O | 22.5 µM (inactive) | 2.15 µM (inactive) | 19.2 µM (inactive) | 19.8 µM (inactive) | 20 µM (inactive) | 10.9 µM (inactive) | > 100 µM (inactive) | 23.1 µM (inactive) |  | 33.6 µM (inactive) | 2.56 µM (inactive) | 18.5 µM (inactive) | 57.3 µM (inactive) | 22.1 µM (inactive) | 69.7 µM (inactive) | 5.92 µM (inactive) | 12.1 µM (inactive) | 5.24 µM (inactive)
C#CCn1c(=O)c(C)cn(/C(=C\C(=O)OCC)C(=O)OCC)c1=O | 17.2 µM (inactive) | 20 µM (inactive) | 0.435 µM (active) | 1.17 µM (inactive) | 6.43 µM (inactive) |  | 2.12 µM (inactive) | 1.72 µM (inactive) | 2.1 µM (inactive) | 17.1 µM (inactive) | 12.6 µM (inactive) |  | 28.6 µM (inactive) | 6.3 µM (inactive) | 8.11 µM (inactive) | 14.7 µM (inactive) | 10.1 µM (inactive) | 2.8 µM (inactive)
CCCCCN(CCCCC)CC(C)(C)C(O)c1ccc(OC)c2ccccc12 (stereo unspecified) | 14.3 µM (inactive) | 9.2 µM (inactive) | 27.9 µM (inactive) | 6.85 µM (inactive) | 12.1 µM (inactive) | 3.52 µM (inactive) | 2.53 µM (inactive) | 2.01 µM (inactive) | 14.1 µM (inactive) | 16.9 µM (inactive) | 11.2 µM (inactive) | 6.79 µM (inactive) |  | 11.5 µM (inactive) | 9.46 µM (inactive) | 13.1 µM (inactive) | 12.5 µM (inactive) | 4.15 µM (inactive)
C=CCNC(=O)N1CC(C)C(=O)Nc2ccccc21 (stereo unspecified) | > 100 µM (inactive) | > 100 µM (inactive) | > 100 µM (inactive) | > 100 µM (inactive) | > 100 µM (inactive) | > 100 µM (inactive) | > 100 µM (inactive) | > 100 µM (inactive) | > 100 µM (inactive) | > 100 µM (inactive) | > 100 µM (inactive) | > 100 µM (inactive) | > 100 µM (inactive) | > 100 µM (inactive) | > 100 µM (inactive) | > 100 µM (inactive) |  | > 100 µM (inactive)
Clc1ccc(NCc2nnc(COc3ccc(OCc4nnc(CNc5ccc(Cl)cc5)o4)c(Cl)c3)o2)cc1 | 28.4 µM (inactive) | 49 µM (inactive) | 11.2 µM (inactive) | 10.9 µM (inactive) | 22.8 µM (inactive) | > 100 µM (inactive) | 13.3 µM (inactive) | 27.2 µM (inactive) | 51.1 µM (inactive) | 23.3 µM (inactive) | 44 µM (inactive) | 10.6 µM (inactive) |  | 43.5 µM (inactive) | 39.3 µM (inactive) | 43.1 µM (inactive) | 4.66 µM (inactive) | 9.51 µM (inactive)
Oc1ccc(Cn2c(-c3ccc(O)c(O)c3)nc3ccccc32)cc1O | 90.2 µM (inactive) | 18.2 µM (inactive) | 3.37 µM (inactive) | 17.4 µM (inactive) | 27.9 µM (inactive) | 13.9 µM (inactive) | 6.59 µM (inactive) | 30.3 µM (inactive) | 9.12 µM (inactive) | 7.43 µM (inactive) | 23.3 µM (inactive) | 4.67 µM (inactive) | 18.6 µM (inactive) | 10.1 µM (inactive) | 5.09 µM (inactive) | 33 µM (inactive) |  | 13.3 µM (inactive)
N[C@@H]1CCN(c2c(F)cc3c(=O)c(C(=O)O)cn4c3c2Oc2c-4ccc3c2ccc2ccccc23)C1 | 11.9 µM (inactive) | 2.39 µM (inactive) |  | 2.99 µM (inactive) | 0.857 µM (active) | 0.494 µM (active) | 2.13 µM (inactive) | 0.241 µM (active) |  | 19.9 µM (inactive) | 3.1 µM (inactive) | 3.18 µM (inactive) | 7.46 µM (inactive) | 3.37 µM (inactive) | 0.571 µM (active) | 5.42 µM (inactive) | 2.79 µM (inactive) | 0.396 µM (active)
CCOC(=O)C(=CNc1ccc(S(N)(=O)=O)cc1)C(=O)OCC | > 100 µM (inactive) | > 100 µM (inactive) | > 100 µM (inactive) | > 100 µM (inactive) | > 100 µM (inactive) | > 100 µM (inactive) | > 100 µM (inactive) | > 100 µM (inactive) | > 100 µM (inactive) | > 100 µM (inactive) | > 100 µM (inactive) | > 100 µM (inactive) | > 100 µM (inactive) | > 100 µM (inactive) | > 100 µM (inactive) | > 100 µM (inactive) |  | > 100 µM (inactive)
CC(C)CCNC(=O)C(CC(C)C)NC(=O)[C@H]1O[C@@H]1C(=O)O (stereo partly specified) | > 100 µM (inactive) | > 100 µM (inactive) | > 100 µM (inactive) | > 100 µM (inactive) | > 100 µM (inactive) | > 100 µM (inactive) | > 100 µM (inactive) | > 100 µM (inactive) | > 100 µM (inactive) | > 100 µM (inactive) | > 100 µM (inactive) | > 100 µM (inactive) | > 100 µM (inactive) | > 100 µM (inactive) | > 100 µM (inactive) | > 100 µM (inactive) | > 100 µM (inactive) | 
CC(O)CNC1=CC(=O)C(=O)c2ccccc21 (stereo unspecified) | 27.7 µM (inactive) | 19 µM (inactive) | 37.9 µM (inactive) | 7.64 µM (inactive) | 18.6 µM (inactive) | 11.7 µM (inactive) | 19.5 µM (inactive) |  | 4.15 µM (inactive) |  | 16.5 µM (inactive) | 18.5 µM (inactive) | 34.5 µM (inactive) | 17.1 µM (inactive) | 15.8 µM (inactive) | 16 µM (inactive) | 12.9 µM (inactive) | 18.2 µM (inactive)
Cc1cc(C)n(C2=NS(=O)(=O)c3ccccc3N2C)n1 | > 100 µM (inactive) | > 100 µM (inactive) | > 100 µM (inactive) | > 100 µM (inactive) | > 100 µM (inactive) | > 100 µM (inactive) | > 100 µM (inactive) | > 100 µM (inactive) |  | > 100 µM (inactive) | > 100 µM (inactive) | > 100 µM (inactive) | > 100 µM (inactive) | > 100 µM (inactive) | > 100 µM (inactive) | > 100 µM (inactive) | > 100 µM (inactive) | 
